The IC50 is the midpoint of a concentration-inhibition curve. A higher IC50 goes with weaker potency in that assay. As usually defined, the inhibition is how much of the control response was suppressed. Read a high inhibition as strong suppression.

The values below come from patent publication US12559495B2 (Agency for Science, Technology and Research, priority 2013, dated 2026).

The structures appear in SMILES notation. A value given as a limit tells only on which side of the number the result lay.

Holding throughout (assay type): cell-based
Test [1] concerns p-LRP6 (Ser1490). Put plainly: Phospho-LRP6 assay, time course, PA-1 teratocarcinoma cells. The protocol: FIGS. 3A-3B show the time-course of p-LRP6 (Ser 1490) inhibition (in vitro) induced by porcupine inhibitors. FIG. 3A is a Western blot analysis of PA-1 teratocarcinoma cells treated with 2 μM of Compound 5, for the time points indicated with antibodies as indicated on the left. As a control, cells treated with either growth medium alone or the vehicle (DMSO) for 48 h were included. FIG. 3B is a densitometric analysis of pLRP6 relative to total LRP6.
The present target efficacy biomarker assay measures a decrease in levels of p-LRP6 (i.e. phosphorylated LRP-6) (Ser1490) upon treatment with a porcupine inhibitor (Compound 5). […] The inhibitory effect remains up to 72 h (data not shown) in the presence of the compound and up to 12 h after the compound has been removed (data not shown).

In a further test the test system is HEK293-STF3A cells. In words: STF3A assay (luciferase reporter). As to conditions: Homo sapiens, 24 h, 1 day of treatment. The method in brief:
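HEK293 cells stably carrying the STF luciferase reporter and expressing Wnt3A, seeded at 2×10^4 cells/well and grown overnight. Serially diluted compound (final 50 μM to 1.5 nM) applied for 1 day at 37 °C. Steady-Glo luciferase luminescence read after 10 min at room temperature.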
Background: A reporter such as luciferase makes a cellular process visible.

Test [2] has as its system p-LRP6 (Ser1490). In words: Phospho-LRP6 assay, dose titration, HPAF-II pancreatic adenocarcinoma cells. The protocol:
FIGS. 4A-4B show pLRP6 in vitro inhibition-dose titration. FIG. 4A is a Western blot analysis of HPAF-II pancreatic adenocarcinoma cells treated with the indicated doses of Compound 5 for 6 h with antibodies as indicated on the left. The […] controls are a cell lysate of untreated STF3A cells and cells treated with vehicle only (DMSO). FIG. 4B is a densitometric analysis of pLRP6 relative to total LRP6.
While 2 μM led to 50-60% inhibition after 6 h of in vitro treatment, 3.3 nM of Compound 5 still inhibited p-LRP6 (Ser1490) by about 20% in this assay (FIG. 4).

Turning to `Cn1c(=O)c2c(ncn2CC(=O)Nc2ccc(-c3ccccc3)nn2)n(C)c1=O` [Compound 5, 2-(1,3-dimethyl-2,6-dioxo-1,2,3,6-tetrahydro-7H-purin-7-yl)-N-(6-phenylpyridazin-3-yl)acetamide], in the test on p-LRP6 (Ser1490) [1] (2 μM, from 4 h onwards, in vitro (FIG. 3)), the “reduction in p-LRP6” value was “greater than 50%”. In the test on p-LRP6 (Ser1490) [1] (data not shown), the “duration of inhibitory effect after the compound has been removed” value is “up to 12 h” and the “duration of inhibitory effect in the presence of the compound” value is listed as “up to 72 h”. For the same compound, the IC50 in the test with HEK293-STF3A cells is < 100 nM. In the test with p-LRP6 (Ser1490) [2] (Homo sapiens, HPAF-II, 3.3 nM, 6 h (FIG. 4)), the inhibition at 0.0033 µM was ~20%. For the same compound, the inhibition at 2 µM with p-LRP6 (Ser1490) [2] (Homo sapiens, HPAF-II, 2 μM, after 6 h of in vitro treatment (FIG. 4)) was in the range of 50 to 60%. The “inhibition of p-LRP6” value with p-LRP6 (Ser1490) [2] (concentrations lower than 3.3 nM, HPAF-II cells (data not shown)) is “did not inhibit”.

Turning to `Cc1nc(-c2ccc(NC(=O)CCn3cnc4c3c(=O)n(C)c(=O)n4C)cc2)cs1` [Compound 92, 3-(1,3-dimethyl-2,6-dioxo-1,2,3,6-tetrahydro-7H-purin-7-yl)-N-(4-(2-methylthiazol-4-yl)phenyl)propanamide], the IC50 in the test on HEK293-STF3A cells was < 1000 nM.

For `Cn1c(=O)c2c(ncn2CCC(=O)Nc2ccc(-c3nccs3)cc2)n(C)c1=O` [Compound 93, 3-(1,3-dimethyl-2,6-dioxo-1,2,3,6-tetrahydro-7H-purin-7-yl)-N-(4-(thiazol-2-yl)phenyl)propanamide], the IC50 in the test on HEK293-STF3A cells was < 1000 nM.

As to `Cn1c(=O)c2c(ncn2CCCC(=O)Nc2ccc(-c3nccs3)cc2)n(C)c1=O` [Compound 94, 4-(1,3-dimethyl-2,6-dioxo-1,2,3,6-tetrahydro-7H-purin-7-yl)-N-(4-(thiazol-2-yl)phenyl)butanamide], in the test with HEK293-STF3A cells, the IC50 is < 1000 nM.
